Source: patent US20060004044A1, “3-glyoxylamideindoles for treating cancer” (Synta Pharmaceuticals Corp., priority 2001, published 2006)
Blank lines part the entries; values can stand above or below the compound they belong to.

Key:
[1] = test system: HL-60/TX1000 multi-drug resistant human myeloid leukemia cell line; assay: In vitro anti-cancer activity against MDR cell line HL-60/TX1000; assay type: cell-based; conditions: for IC50: Homo sapiens, HL-60/TX1000 cells, 72 hours, MTS
Experimental: (§1) The cell lines were maintained in RPM11640(GIBCO) supplemented with 10% FCS, 100 units/ml penicillin, 100 ug/ml streptomycin, and 2 mM L-glutamine. The cells were split every third day and diluted to a concentration of 2×10^5 cells/ml one day before experiment. All experiments were performed on exponentially growing cell culture. Cell densities were 2.5×10^4 cells/ml in all experiment.
(§2) A stock solution of Compound (1) was prepared by dissolving the compound at a concentration of 1 mM in 100% DMSO. Final concentrations were obtained by diluting the stock solution directly into the tissue culture medium. Cells were incubated with varying concentrations of compounds for 72 hours and the IC50 was determined by MTS (i.e. […]) assay. IC50 stands for the concentration of compound required to inhibit 50% tumor cell growth.
(§3) In vitro activity was determined in two MDR (Multi Drug Resistant) human cancer cell lines. HL-60/TX1000 was isolated in vitro by subculturing HL-60 in progressively higher concentration of Taxol. HL-60/TX1000 cells over-express mdr-1 mRNA and p-glycoprotein, as determined by western blot and immunofluorescence labeling with antiPGP antibodies. The cell is cross-resistant to Taxol, Vincristine, Adriamycin, Etoposide and Doxorubicin. MES-SA/Dx5 was established in the presence of increasing concentrations of Doxorubicin. […] MES-SA/Dx5 was purchased from ATCC.
(§4) The procedure for culturing the cells and assaying cancer cell growth inhibition were as described in Example 3.
(§5) The protocol described in Example 3 was used to assay inhibition by Compounds (2)-(10) on the growth of the multi-drug resistant cell lines MES-SA/DX5 and HL60/TX1000.

[2] = test system: MES-SA/DX5 multi-drug resistant human uterine sarcoma cell line; assay: In vitro anti-cancer activity against MDR cell line MES-SA/DX5; assay type: cell-based; conditions: for IC50: MES-SA/DX5 cells, 72 hours, MTS
Experimental: as §1, §2, §3, §4, §5

[3] = test system: MDA435 (human breast cancer); assay: In vitro anti-cancer activity, MTS assay, MDA435; assay type: cell-based; conditions: MDA-435 cells, 72 hours
Experimental: (§6) The in vitro activity of the compounds was determined in the following […] human cancer cell lines. MDA435 (human breast cancer), HL-60 (human myeloid leukemia), DU-145 (human prostate cancer), MES-SA (human uterine sarcoma), H2 (human leukemia) were obtained from ATCC (American Type of Culture Collection).
as §1, §2

[4] = test system: HL-60 (human myeloid leukemia); assay: In vitro anti-cancer activity, MTS assay, HL-60; assay type: cell-based; conditions: HL-60 cells, 72 hours
Experimental: as §6, §1, §2

[5] = test system: DU-145 (human prostate cancer); assay: In vitro anti-cancer activity, MTS assay, DU-145; assay type: cell-based; conditions: DU-145 cells, 72 hours
Experimental: as §6, §1, §2

[6] = test system: MES-SA (human uterine sarcoma); assay: In vitro anti-cancer activity, MTS assay, MES-SA; assay type: cell-based; conditions: MES-SA cells, 72 hours
Experimental: as §6, §1, §2

[7] = test system: H2 (human leukemia); assay: In vitro anti-cancer activity, MTS assay, H2; assay type: cell-based; conditions: H2 cells, 72 hours
Experimental: as §6, §1, §2

[8] = test system: MCF-7 human breast tumor; assay: Tumor growth inhibition assay, human breast tumor (MCF-7) xenograft model; assay type: in vivo, nude mice (CD-1 nu/nu); conditions: nude mice; for tumor growth inhibition (FIG. 1): 3 times a week for 3 weeks
[9] = test system: MDA435 human breast tumor; assay: Tumor growth inhibition assay, human breast tumor (MDA435) xenograft model, oral treatment; assay type: in vivo, nude mice; conditions: for body weight change / loss: nude mice with MDA435 tumors, oral, Compound (5) 25 mg/kg, Compound (3) 50 mg/kg; for tumor growth inhibition (FIG. 2): nude mice, 3 times a week for 3 weeks

Compound: NC(=O)c1ccc(NC(=O)C(=O)c2cn(Cc3ccc(Cl)cc3)c3ccccc23)nc1 [(4)]
IC50 ([1]; HL60/TX1000): 50 nM
IC50 ([2]; Homo sapiens): 50 nM

Compound: CSc1nnc(NC(=O)C(=O)c2cn(Cc3ccc(Cl)cc3)c3ccccc23)[nH]1 [(6)]
IC50 ([1]; HL60/TX1000): 50 nM
IC50 ([2]; Homo sapiens): 50 nM

Compound: O=C(Nc1ccon1)C(=O)c1cn(Cc2ccc(Cl)cc2)c2ccccc12 [(7)]
IC50 ([1]; HL60/TX1000): 50 nM
IC50 ([2]; Homo sapiens): 80 nM

IC50 ([1]; HL60/TX1000, 72 h): 100 nM
IC50 ([2]; Homo sapiens, MES-SA/Dx5, 72 h): 100 nM
Compound: CN(c1ccccc1)n1cc(C(=O)C(=O)Nc2ccc3ncccc3c2)c2ccccc21 [(8)]

Compound: N#Cc1ccc(Cn2cc(C(=O)C(=O)Nc3ccncc3)c3ccccc32)cc1 [(9)]
IC50 ([1]; HL60/TX1000): 50 nM
IC50 ([2]; Homo sapiens): 50 nM

Compound: Cc1cc(NC(=O)C(=O)c2cn(Cc3ccc(Cl)cc3)c3ccccc23)no1 [(10)]
IC50 ([1]; HL60/TX1000): 50 nM
IC50 ([2]; Homo sapiens): 50 nM

Compound: Cc1cc(NC(=O)C(=O)c2cn(Cc3ccc(Cl)cc3)c3ccccc23)sn1 [Compound (1), 2-(1-(4-Chloro-benzyl)-1-indol-3-yl)-N-(3-methyl-isothiazol-5-yl)-2-oxo-acetamide]
IC50 [3]: 5 nM
IC50 [4]: 5 nM
IC50 [5]: 5 nM
IC50 [6]: 5 nM
IC50 [7]: 5 nM
anti-cancer activity against MDR cancer cell lines (in words) ([1]; HL-60/TX1000): high anti-cancer activity
IC50 ([1]; HL60/TX1000): 10 nM
IC50 ([2]; Homo sapiens): 10 nM
anti-cancer activity against MDR cancer cell lines (in words) ([2]; MES-SA/DX5): high anti-cancer activity
tumor growth inhibition (FIG. 1) ([8]; 7.5 mg/kg intravenously): significantly inhibits tumor growth
tumor growth inhibition (FIG. 1) ([8]; 10 mg/kg intravenously): significantly inhibits tumor growth
toxicity ([8]; 7.5 and 10 mg/kg): acceptable toxicity
reduction of volume of tumors ([8]; intravenously every second day, 10 mg/kg): greater than 50%

Compound: Cc1cc(NC(=O)C(=O)c2cn(Cc3ccc(C#N)cc3)c3ccccc23)sn1 [Compound (2)]
IC50 ([1]; HL60/TX1000): 5 nM
IC50 ([2]; Homo sapiens): 5 nM

Compound: NC(=O)c1ccc(NC(=O)C(=O)c2cn(Cc3ccc(Cl)cc3)c3ccccc23)cc1 [Compound (3)]
IC50 ([1]; HL60/TX1000): 50 nM
IC50 ([2]; Homo sapiens): 50 nM
body weight change / loss [9]: without showing significant body weight loss
tumor growth inhibition (FIG. 2) ([9]; 50 mg/kg orally by gavage): significantly inhibit tumor growth

Compound: O=C(Nc1ccc2ncccc2c1)C(=O)c1cn(Cc2ccc(Cl)cc2)c2ccccc12 [Compound (5)]
IC50 ([1]; HL60/TX1000): 50 nM
IC50 ([2]; Homo sapiens): 50 nM
body weight change / loss [9]: without showing significant body weight loss
tumor growth inhibition (FIG. 2) ([9]; 25 mg/kg orally by gavage): significantly inhibit tumor growth

IC50 ([2]; Homo sapiens, MES-SA/Dx5, 72 h): 1000 to 5000 nM
IC50 [2]: 1000 nM
Compound: CC[C@]1(O)C[C@H]2CN(CCc3c([nH]c4ccccc34)[C@@](C(=O)OC)(c3cc4c(cc3OC)N(C=O)[C@H]3[C@@](O)(C(=O)OC)[C@H](OC(C)=O)[C@]5(CC)C=CCN6CC[C@]43[C@@H]65)C2)C1 [Vincristine, reference compound]
